Measurements from patent US5945440A, “Indolocarbazole imides and the use thereof” (priority 1992, dated 1999).

What was measured:
protein kinase C = assay: inhibition of protein kinase C, enzyme test; assay type: biochemical; conditions: for IC50: read-out: inhibition of the protein kinases, C-kinase IC50
Protocol: In order to ascertain whether it is a question of a selective inhibition of MLC kinase, the compounds were also investigated in other enzyme tests for protein kinase, including tests for protein kinase C. The results from the PKC test are also given in the following Table I. Furthermore, the Table contains selectivity factors which were calculated by the determination of the ratios of the IC50 values.

[1] = biological target: T1, MLC kinase (myosin light-chain kinase) (Gallus gallus, UniProt P11799); assay: inhibition of MLC kinase, in vitro enzyme test (32P phosphate incorporation); assay type: biochemical, chicken (stomach); conditions: for ratio of IC50 C-kinase/IC50 MLC-kinase: selectivity factor calculated from the IC50 values; for IC50: 1 nM MLC kinase, 250 μM ATP, pH 7.2, 20 minutes at 30° C., read-out: inhibition of the protein kinases, MLC-kinase IC50; for MLC kinase inhibition, in words: potency and selectivity vs protein kinase C
T1 construct: MLC kinase was purified from chicken stomach; from tissue; host or cells: chicken stomach (gizzard smooth muscle)
T1 sequence (P11799 935-1906): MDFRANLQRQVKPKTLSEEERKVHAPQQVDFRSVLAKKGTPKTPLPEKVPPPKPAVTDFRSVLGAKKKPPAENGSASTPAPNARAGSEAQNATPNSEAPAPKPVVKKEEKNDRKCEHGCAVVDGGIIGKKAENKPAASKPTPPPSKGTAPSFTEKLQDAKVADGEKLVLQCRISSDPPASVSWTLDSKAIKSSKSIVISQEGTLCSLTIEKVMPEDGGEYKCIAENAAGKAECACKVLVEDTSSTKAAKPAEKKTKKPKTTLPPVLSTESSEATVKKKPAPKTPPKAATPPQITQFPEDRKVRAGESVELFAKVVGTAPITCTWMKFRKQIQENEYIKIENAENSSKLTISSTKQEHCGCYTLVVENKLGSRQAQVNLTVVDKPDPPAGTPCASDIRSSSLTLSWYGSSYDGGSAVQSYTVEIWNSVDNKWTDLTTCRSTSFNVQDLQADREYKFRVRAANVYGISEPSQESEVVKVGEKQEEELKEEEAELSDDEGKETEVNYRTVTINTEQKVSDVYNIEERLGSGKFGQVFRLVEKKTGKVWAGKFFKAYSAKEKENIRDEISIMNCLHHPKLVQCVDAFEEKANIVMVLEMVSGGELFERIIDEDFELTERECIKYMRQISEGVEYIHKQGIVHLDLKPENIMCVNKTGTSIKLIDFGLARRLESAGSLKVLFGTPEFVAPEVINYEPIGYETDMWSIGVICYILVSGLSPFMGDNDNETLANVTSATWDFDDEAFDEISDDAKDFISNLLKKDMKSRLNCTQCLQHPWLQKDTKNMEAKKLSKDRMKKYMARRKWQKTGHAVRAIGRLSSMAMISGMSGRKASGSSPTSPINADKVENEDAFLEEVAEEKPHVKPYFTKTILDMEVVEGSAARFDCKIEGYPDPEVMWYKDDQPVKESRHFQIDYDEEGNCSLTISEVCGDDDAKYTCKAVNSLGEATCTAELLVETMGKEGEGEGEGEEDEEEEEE
Protocol: Inhibition of the enzyme MLC kinase (EC 3.6.1.3; kinase of the light myosin chain; myosin light-chain kinase).
The inhibition of MLC kinase was measured in an in vitro enzyme test.
The reaction was initiated by the addition of 1 nM MLC kinase. After incubation for 20 minutes at 30° C., the reaction was stopped with TCA and the samples then filtered off. The phosphate incorporation took place by means of Cerenkov counting of the filter.

human tumour cells [2] = assay: colony test, human tumour cells in soft agar (tumour types in general); assay type: cell-based; conditions: certain tumour types
Protocol: (§1) For this test, human tumour cells are kept as solid tumour by passage on the nude mouse. For the test, an individual cell suspension is prepared and the cells then plated out in dishes containing soft agar. Under these conditions, the tumour cells multiply and form colonies.

[3] = literature / other filings; cited from earlier work
HIV [4] = assay: phorbol ester-induced HIV reactivation, viral protein p24 by ELISA; assay type: cell-based; conditions: Human immunodeficiency virus 1; U1 cells, PMA stimulation; average value ± SD; n = 3; read-out: inhibition of the HIV production IC50, p24 expression
Protocol: (§2) In the case of the establishment of this hypothesis, use was made of the promonocytic cell line U1.
(§3) Without stimulation, no formation of HIV can be measured in these cells but, after 15 minutes stimulation with the phorbol ester PMA, it results in a massive production of HIV.
(§4) Some of the PKC inhibitors according to the present invention were investigated in this model. As a measure for the HIV production, either with the help of an ELISA test there was determined the viral protein p24 or with the help of an indicator cell, there was measured the HIV-induced formation of syncytia (giant cells produced by the fusion of individual cells).

[5] = tested on: promonocytic cell line U1; assay: control experiments for cytotoxic action in the HIV model; assay type: cell-based
HIV [6] = assay: phorbol ester-induced HIV reactivation, HIV-induced syncytia formation with indicator cell; assay type: cell-based; conditions: Human immunodeficiency virus 1; U1 cells, PMA stimulation; average value; n = 2; read-out: inhibition of the HIV production IC50, syncytia formation
Protocol: as §2, §3, §4

HIV [7] = assay: HIV production in PMA-stimulated promonocytic U1 cells (both methods); assay type: cell-based; conditions: for anti-HIV action, in words: both test methods
Protocol: as §2, §3, §4

[8] = tested on: human tumour cells, prostata 1; assay: colony formation of human tumour cells: prostata 1; assay type: cell-based
Protocol: as §1

[9] = tested on: human tumour cells, ovarian 3; assay: colony formation of human tumour cells: ovarian 3; assay type: cell-based
Protocol: as §1

[10] = tested on: human tumour cells, pancreas 1; assay: colony formation of human tumour cells: pancreas 1; assay type: cell-based
Protocol: as §1

[11] = tested on: human tumour cells, gastric 2; assay: colony formation of human tumour cells: gastric 2; assay type: cell-based
Protocol: as §1

[12] = tested on: human tumour cells, colon; assay: colony formation of human tumour cells: colon; assay type: cell-based
Protocol: as §1

[13] = tested on: human tumour cells, ovarian 2; assay: colony formation of human tumour cells: ovarian 2; assay type: cell-based
Protocol: as §1

[14] = tested on: human tumour cells, lung (large cell); assay: colony formation of human tumour cells: lung (large cell); assay type: cell-based
Protocol: as §1

[15] = tested on: human tumour cells, ovarian 1; assay: colony formation of human tumour cells: ovarian 1; assay type: cell-based
Protocol: as §1

[16] = tested on: human tumour cells, melanoma 3; assay: colony formation of human tumour cells: melanoma 3; assay type: cell-based
Protocol: as §1

[17] = tested on: human tumour cells, lung (small cell 1); assay: colony formation of human tumour cells: lung (small cell 1); assay type: cell-based
Protocol: as §1

[18] = tested on: human tumour cells, melanoma 2; assay: colony formation of human tumour cells: melanoma 2; assay type: cell-based
Protocol: as §1

[19] = tested on: human tumour cells, melanoma 1; assay: colony formation of human tumour cells: melanoma 1; assay type: cell-based
Protocol: as §1

[20] = tested on: human tumour cells, gastric 1; assay: colony formation of human tumour cells: gastric 1; assay type: cell-based
Protocol: as §1

[21] = tested on: human tumour cells, colorectal 1; assay: colony formation of human tumour cells: colorectal 1; assay type: cell-based
Protocol: as §1

[22] = tested on: narcotised, spontaneously hypertensive rat (SHR); assay: anti-hypertensive action in narcotised spontaneously hypertensive rats, i.v.; assay type: in vivo; conditions: for reduction of the average arterial blood pressure / reduction of the heart frequency: 60 minutes after administration, average ± SD; for anti-hypertensive action, in words / influencing of the heart frequency, in words: i.v.
Protocol: As test model, there was used the narcotised, spontaneously hypertensive rat (SHR). After intravenous administration of the inhibitor of MLC kinase, in each case 60 minutes after the administration of the compound, there were found the reductions of the average arterial blood pressure set out in the following Table 2.

human tumour cells [23] = conditions: general statement on the colony test; cited from earlier work
protein kinases = conditions: Bio/Technology, 1990, 8, 132-135; cited from earlier work

Structure (SMILES): CN(C)CC(O)Cn1c2ccccc2c2c3c(c4c5ccccc5n(C)c4c21)C(=O)NC3=O (racemic) [Example 10, (±)-12-(3-Dimethylamino-2-hydroxy-1-propyl)-6,7,12,13-tetrahydro-13-methyl-5,7-dioxo-5H-indolo[2,3-a]pyrrolo-[3,4-c]carbazole]
- IC50 (protein kinase C): 21 nM
- ratio of IC50 C-kinase/IC50 MLC-kinase [1]: 0.2
- inhibition of tumour cell growth, in words (human tumour cells [2]): the growth of the tumour cells can be inhibited depending upon the concentration

Structure (SMILES): O=C1NC(=O)c2c1c1c3cccc(O)c3[nH]c1c1[nH]c3c(O)cccc3c21 [BE-13193C]
- anti-tumour action, in words [3]: antitumour action

Structure (SMILES): COc1ccc2c(c1)c1c3c(c4c5ccccc5n(C)c4c1n2CCC#N)C(=O)NC3=O [Example 1, 13-(2-Cyanoethyl)-6,7,12,13-tetrahydro-3-methoxy-12-methyl-5,7-dioxo-5H-indolo[2,3-a]pyrrolo[3,4-c]-carbazole]
- protein kinase C inhibition, in words (protein kinase C; potency and selectivity vs MLC kinase): potent and selective protein kinase C inhibitor
- IC50 (protein kinase C): 1.5 nM
- IC50 [1]: 200 nM
- ratio of IC50 C-kinase/IC50 MLC-kinase [1]: 0.008
- IC50 (HIV [4]): 118 ± 98 nM
- cytotoxic action as cause of the anti-HIV action, in words [5]: the anti-HIV action did not come about due to a cytotoxic action
- IC50 (HIV [6]): 28 nM
- anti-HIV action, in words (HIV [7]): an anti-HIV action could be demonstrated

Structure (SMILES): CN(C)CCCn1c2ccc(O)cc2c2c3c(c4c5cc(O)ccc5[nH]c4c21)C(=O)NC3=O [Example 2c]
- IC50 (protein kinase C): 14 nM
- IC50 [1]: 6.1 nM
- ratio of IC50 C-kinase/IC50 MLC-kinase [1]: 2.3
- IC50 [8]: 200 nM
- inhibition at 10 µM ([8]; 10^-5 M): 98%
- inhibition at 1 µM ([8]; 10^-6 M): 99%
- inhibition at 0.1 µM ([8]; 10^-7 M): 29%
- IC50 [9]: < 100 nM
- inhibition at 10 µM ([9]; 10^-5 M): 99%
- inhibition at 1 µM ([9]; 10^-6 M): 94%
- inhibition at 0.1 µM ([9]; 10^-7 M): 74%
- inhibition of tumour cell growth, in words (human tumour cells [2]): the growth of the tumour cells can be inhibited depending upon the concentration
- IC50 [10]: 1500 nM
- inhibition at 10 µM ([10]; 10^-5 M): 83%
- inhibition at 1 µM ([10]; 10^-6 M): 44%
- inhibition at 0.1 µM ([10]; 10^-7 M): 38%
- IC50 [11]: < 100 nM
- inhibition at 10 µM ([11]; 10^-5 M): 77%
- inhibition at 1 µM ([11]; 10^-6 M): 66%
- inhibition at 0.1 µM ([11]; 10^-7 M): 65%
- IC50 (HIV [4]): 36 ± 15 nM
- cytotoxic action as cause of the anti-HIV action, in words [5]: the anti-HIV action did not come about due to a cytotoxic action
- IC50 [12]: 1700 nM
- inhibition at 10 µM ([12]; 10^-5 M): 94%
- inhibition at 1 µM ([12]; 10^-6 M): 37%
- inhibition at 0.1 µM ([12]; 10^-7 M): 8%
- IC50 [13]: 2600 nM
- inhibition at 10 µM ([13]; 10^-5 M): 75%
- inhibition at 1 µM ([13]; 10^-6 M): 33%
- inhibition at 0.1 µM ([13]; 10^-7 M): 5%
- IC50 [14]: < 100 nM
- inhibition at 10 µM ([14]; 10^-5 M): 100%
- inhibition at 1 µM ([14]; 10^-6 M): 100%
- inhibition at 0.1 µM ([14]; 10^-7 M): 97%
- IC50 [15]: 200 nM
- inhibition at 10 µM ([15]; 10^-5 M): 96%
- inhibition at 1 µM ([15]; 10^-6 M): 75%
- inhibition at 0.1 µM ([15]; 10^-7 M): 40%
- IC50 [16]: 210 nM
- inhibition at 10 µM ([16]; 10^-5 M): 73%
- inhibition at 1 µM ([16]; 10^-6 M): 76%
- inhibition at 0.1 µM ([16]; 10^-7 M): 38%
- IC50 [17]: < 100 nM
- inhibition at 10 µM ([17]; 10^-5 M): 97%
- inhibition at 1 µM ([17]; 10^-6 M): 97%
- inhibition at 0.1 µM ([17]; 10^-7 M): 82%
- IC50 (HIV [6]): 29 nM
- IC50 [18]: < 100 nM
- inhibition at 10 µM ([18]; 10^-5 M): 97%
- inhibition at 1 µM ([18]; 10^-6 M): 99%
- inhibition at 0.1 µM ([18]; 10^-7 M): 90%
- IC50 [19]: 120 nM
- inhibition at 10 µM ([19]; 10^-5 M): 89%
- inhibition at 1 µM ([19]; 10^-6 M): 81%
- inhibition at 0.1 µM ([19]; 10^-7 M): 48%
- anti-HIV action, in words (HIV [7]): an anti-HIV action could be demonstrated
- IC50 [20]: 1200 nM
- inhibition at 10 µM ([20]; 10^-5 M): 99%
- inhibition at 1 µM ([20]; 10^-6 M): 47%
- inhibition at 0.1 µM ([20]; 10^-7 M): 29%
- IC50 [21]: 6000 nM
- inhibition at 10 µM ([21]; 10^-5 M): 62%
- inhibition at 1 µM ([21]; 10^-6 M): 8%
- inhibition at 0.1 µM ([21]; 10^-7 M): 0%

Structure (SMILES): Cn1c2ccccc2c2c3c(c4c5ccccc5[nH]c4c21)C(=O)NC3=O [Example 7c, 6,7,12,13-tetrahydro-12-methyl-5,7-dioxo-5H-indolo[2,3-a]pyrrolo[3,4-c]carbazole]
- reduction of the average arterial blood pressure ([22]; 3 mg/kg i.v.): 10 ± 7%
- reduction of the heart frequency ([22]; 3 mg/kg i.v.): 7 ± 3%
- reduction of the average arterial blood pressure ([22]; 10 mg/kg i.v.): 23 ± 2%
- reduction of the heart frequency ([22]; 10 mg/kg i.v.): 8 ± 2%
- anti-hypertensive action, in words [22]: dosage-dependent anti-hypertensive action could be demonstrated
- influencing of the heart frequency, in words [22]: scarcely observable
- IC50 (protein kinase C): > 10000 nM
- IC50 [1]: 23 nM
- MLC kinase inhibition, in words [1]: potent and selective inhibitors of MLC kinase
- ratio of IC50 C-kinase/IC50 MLC-kinase [1]: > 435

Structure (SMILES): CC(C)N(CCCn1c2ccccc2c2c3c(c4c5ccccc5[nH]c4c21)C(=O)NC3=O)C(C)C [Example 7g, 12-(3-diisopropylaminopropyl)-6,7,12,13-tetrahydro-5,7-dioxo-5H-indolo[2,3-a]pyrrolo[3,4-c]carbazole]
- IC50 (protein kinase C): 42 nM
- IC50 [1]: 110 nM
- ratio of IC50 C-kinase/IC50 MLC-kinase [1]: 0.4
- inhibition of tumour cell growth, in words (human tumour cells [2]): the growth of the tumour cells can be inhibited depending upon the concentration

Structure (SMILES): COc1ccc2[nH]c3c4[nH]c5ccc(OC)cc5c4c4c(c3c2c1)C(=O)NC4=O [Example 11d, 6,7,12,13-tetrahydro-3,9-dimethoxy-5,7-dioxo-5H-indolo[2,3-a]pyrrolo[3,4-c]carbazole]
- reduction of the average arterial blood pressure ([22]; 3 mg/kg i.v.): 16 ± 3%
- reduction of the heart frequency ([22]; 3 mg/kg i.v.): 6 ± 2%
- reduction of the average arterial blood pressure ([22]; 10 mg/kg i.v.): 35 ± 5%
- reduction of the heart frequency ([22]; 10 mg/kg i.v.): 10 ± 3%
- anti-hypertensive action, in words [22]: dosage-dependent anti-hypertensive action could be demonstrated
- influencing of the heart frequency, in words [22]: scarcely observable
- IC50 (protein kinase C): > 10000 nM
- IC50 [1]: 21 nM
- MLC kinase inhibition, in words [1]: potent and selective inhibitors of MLC kinase
- ratio of IC50 C-kinase/IC50 MLC-kinase [1]: > 476

Structure (SMILES): CC1CNCCN1S(=O)(=O)c1cccc2cnccc12 (centres unmarked) [Example H-7, reference compound]
- suppression of HIV production, in words (HIV [7]; 1 hour before PMA stimulation and 48 hours after): the production of HIV can be completely suppressed

Structure (SMILES): COc1cccc2c1C(=O)c1c(O)c3c(c(O)c1C2=O)C[C@@](O)(C(=O)CO)C[C@@H]3O[C@H]1C[C@H](N)[C@H](O)[C@H](C)O1 [adriamycin]
- prevention of colony formation, in words (human tumour cells [23]): able to prevent this colony formation

Structure (SMILES): CO[C@H]1[C@H](O)[C@@H](O)[C@H](n2c3c(Cl)cccc3c3c4c(c5c6cccc(Cl)c6[nH]c5c32)C(=O)NC4=O)O[C@@H]1CO [rebeccamycin]
- anti-tumour action, in words [3]: anti-tumour action
- inhibition of protein kinases, in words (protein kinases): do not inhibit protein kinases
